# Reference: a melting point compilation (Tetko et al.)
row,SMILES,melting point [°C]
1,O=[N+]([O-])c1ccc(N2CCOCC2)nc1,143 to 145
2,N#Cc1ccc(NCCO)cc1,84 to 86
3,O=C(O)CCN1C(=O)C2CCCCC2C1=O (stereo unspecified),81 to 83
4,C=CS(=O)(=O)c1cccc(Br)c1,50 to 52
5,CC1(C)CC(=O)C=C(N)C1,167 to 170
6,Nc1nc(-c2ccc(Cl)cc2)no1,248 to 250
7,O=C(NC=C(Cl)Cl)c1ccc(Br)cc1,110 to 112
8,CCN(CCC(=O)O)Cc1nc2c(C)cccc2c(=O)[nH]1,184 to 186
9,CS(=O)(=O)c1cc(Br)cc(C(=O)O)c1F,209 to 211
10,O=C(O)c1ccccc1OC1CCCCC1,86 to 88
11,CC(C)C(N)c1nnc2ccccn12 (stereo unspecified),116 to 118
12,Cc1nc(C)c(-c2csc(N)n2)s1,125 to 127
13,Nc1nnc(-c2c(F)cccc2Cl)o1,152 to 154
14,O=[N+]([O-])c1ccccc1Nc1ccc(F)cc1F,79 to 81
15,Cc1ccn2c(C(=O)O)cnc2c1,159 to 161
16,O=C(O)c1cccc(Nc2ccccc2)c1,129 to 131
17,O=C(NC1CCN(Cc2ccccc2)CC1)c1ccco1,158 to 160
18,O=c1nncc2[nH]cccc1-2,269 to 271
19,Nc1cc2c(cc1NC(=O)c1cccs1)OCCO2,178 to 180
20,O=C1NC2(CCCC2)C(=O)N1CCBr,97 to 99
21,CCCc1nc2ccccc2c(C(=O)O)c1CC,222 to 224
22,Nc1cccc(NC(=O)CN2CCCCCC2)c1,67 to 69
23,O=C1C(Br)CCCN1c1ccccc1Cl (stereo unspecified),108 to 110
24,NC(Cc1ccc(Cl)cc1)=NO,96 to 98
25,Sc1ncn(-c2ccccc2)n1,173 to 175

row,SMILES,melting point [°C]
1,CC(C)(C)OC(=O)NC1CCN(CC(=O)O)CC1,204 to 206
2,NC(=S)C(NC(=O)c1ccccc1)C1CC1 (stereo unspecified),199 to 201
3,N#Cc1ccccc1SCC(=O)O,143 to 145
4,O=C(O)CCc1cc(Cl)cs1,69 to 71
5,O=C(Nc1sc2c(c1C(=O)O)CCC2)c1ccco1,242 to 244
6,Clc1cccc2cc(I)cnc12,97 to 99
7,Cc1cccc(N2CC(C(=O)O)CC2=O)c1C (stereo unspecified),211 to 213
8,CCOC(=O)c1sc(SC)nc1N,80 to 82
9,CC(C)(C)OC(=O)N1CCN(S(=O)(=O)Cl)CC1,148 to 150
10,Cc1nc(N)n[nH]1,142 to 144
11,NCc1cc(=O)n2ccccc2n1,123 to 125
12,CCN1CCN(c2ccc(C(C)=O)cc2F)CC1,68 to 70
13,COc1cc(C(=O)O)cc(OC)c1C(C)C,164 to 166
14,COc1ccccc1NC(=O)c1ccc(NC(=O)CCl)cc1,103 to 106
15,Cc1nc(NC(=O)NN)no1,288 to 290
16,Cn1cccc1C(=O)NC(=O)CCl,139 to 141
17,O=C(O)C1CCN(c2ccc3nnnn3n2)CC1,199 to 201
18,COC(=O)c1cccc(NC(=O)CC(C)=O)c1,75 to 77
19,CCC(=O)c1cnccc1N,134 to 136
20,O=C(Nc1ccc(Cl)cc1)OCC(F)(F)F,69 to 71
21,COc1cc(/C=C/C(=O)O)cc(Cl)c1OC(C)C,113 to 115
22,CCc1nc(C(=O)O)nn1-c1c(Cl)cccc1Cl,197 to 199
23,CCc1cc(O)ccc1Cl,45 to 50
24,Nc1ccc(Sc2ccccc2Cl)cc1,77 to 79
25,Nc1nc(-c2sccc2Br)cs1,151 to 153

row,SMILES,melting point [°C]
1,CN(C)C(=O)CSc1ccccc1C(=O)O,< 17
2,O=[N+]([O-])c1ccccc1S(=O)(=O)N1CCNCC1,147 to 149
3,COC(=O)c1cccc(C(=O)O)n1,149 to 151
4,CN1CCN(S(=O)(=O)c2ccc(N)cc2)CC1,231 to 233
5,CCn1c(S)nnc1-c1ccc(Cl)cc1,211 to 213
6,OC(CCc1ccccc1)CCc1ccccc1,44 to 46
7,c1ccc(Nc2nc3ccccc3s2)cc1,139 to 141
8,Sc1nnc(-c2ccccc2)n1Cc1ccc2c(c1)OCO2,118 to 120
9,Cc1ccc(C(=O)CBr)cc1C,63 to 65
10,COc1cccc(-c2ccc(CN)cc2)c1,46 to 48
11,CN(C)c1ccc(C(=N)N)c(F)c1,133 to 135
12,COCCNc1ccc(C(F)(F)F)cn1,77 to 79
13,O=C(CC(F)(F)F)c1ccc(F)cc1,29 to 31
14,O=C(NCc1ccc(Cl)cc1)n1ccnc1,94 to 96
15,O=C(CCl)c1ccc(Br)cc1,119 to 121
16,NNC(=O)COc1ccccc1F,109 to 112
17,CN(C)c1ccc(C(N)=O)cc1,207 to 209
18,Cc1ccccc1/C=C/c1cc(C(=O)O)c2cc(Br)ccc2n1,289 to 291
19,Oc1nc(O)c2c(n1)CCC2,324 to 326
20,Nc1ncn(-c2ccccn2)n1,174 to 176
21,CC(C)(c1ccccc1)c1nnc(N)o1,196 to 198
22,CC(C)c1cc(C(=O)O)cc(O)n1,309 to 311
23,O=C(O)c1ccc[nH]1,204 to 208
24,CC1(C(=O)O)CCCCN1C(=O)c1ccccc1 (stereo unspecified),187 to 189
25,Sc1ncccc1Br,199 to 201

row,SMILES,melting point [°C]
1,Cc1cccc2c(=O)[nH]c(CC#N)nc12,233 to 235
2,Cc1cccc(OCC(=O)N2CCNCC2)c1C,86 to 88
3,O=C1CCS(=O)(=O)O1,69 to 71
4,N#CCC(=O)Cc1ccc(Cl)cc1,85 to 87
5,O=C(O)CCC(=O)N1CCC(O)CC1,121 to 123
6,Fc1cc2nc(S)[nH]c2cc1F,291 to 293
7,ClCc1ccnc(-c2ccc(Br)cc2)n1,126 to 128
8,Cc1nn(Cc2cccc(Cl)c2)cc1C(=O)O,167 to 169
9,C=CC(=O)Nc1ccc(OCC)c(CO)c1,129 to 131
10,CC(Cl)C(=O)Nc1ccc2c(c1)OCO2 (stereo unspecified),168 to 170
11,CCC1=NN(C)C(=O)C1,89 to 91
12,O=C(O)c1ccc(C(=O)c2cc[nH]c2)cc1,219 to 221
13,Cc1cc(Br)c2c(c1)C(=O)C(=O)N2,178 to 180
14,CC(C)c1nn(-c2ccccc2)c(Cl)c1C=O,53 to 55
15,CC1C(=O)NC(=O)N1c1ccc(F)cc1 (stereo unspecified),187 to 189
16,Nc1nnc(CC2CCCCC2)s1,250 to 252
17,CCNC1CCc2[nH]c3ccc(Cl)cc3c2C1 (stereo unspecified),174 to 176
18,Clc1ccnc2c(Br)cccc12,148 to 150
19,CC(=O)Nc1cc(C)c(C)cc1[N+](=O)[O-],189 to 191
20,COc1ccc(-n2ccnc2S)cc1,175 to 177
21,Cc1cc(CC(=O)O)c(C)s1,66 to 68
22,CCNS(=O)(=O)c1ccc(F)c(C(=O)O)c1,154 to 156
23,NS(=O)(=O)c1ccc2c(c1)CCC(=O)N2,263 to 265
24,COC(=O)c1ccc(CN2C(=O)CSC2=O)cc1,117 to 119
25,CCOC(=O)CNC(=O)CC,50 to 52

row,SMILES,melting point [°C]
1,Nc1ccnc2ncnn12,264 to 266
2,CC1CCc2c(sc3nc(CCC(=O)O)[nH]c(=O)c23)C1 (stereo unspecified),259 to 261
3,C=CCNC(=O)c1cccc(S(=O)(=O)Cl)c1,62 to 64
4,O=C(CCN1CCOCC1)c1ccc2ccccc2c1,67 to 69
5,Nc1cccn(Cc2ccc(F)cc2)c1=O,110 to 112
6,CC(=O)Cc1ccc(-c2ccccc2)cc1,49 to 51
7,NC(CCl)=NO,83 to 87
8,CC(C)C(NC(=O)c1ccncc1)C(=O)O (stereo unspecified),187 to 189
9,FC(F)(F)c1nc(Cl)c2sccc2n1,95 to 97
10,ClCc1coc(-c2ccc(I)cc2)n1,129 to 131
11,Cc1cc(C)c(C)c(S(=O)(=O)N2CCC(C(=O)O)CC2)c1C,107 to 109
12,O=C(O)c1cccc(S(=O)(=O)Nc2ccc(Br)cc2)c1,241 to 243
13,Cc1ccc(NC(=O)C(C)Cl)cc1F (stereo unspecified),102 to 104
14,Nc1ncc(Cc2cccc(C(=O)O)c2)s1,217 to 219
15,CCN(CC)S(=O)(=O)c1ccc(=O)n(CC(=O)O)c1,182 to 189
16,Cn1ccnc1SCC(=O)Nc1cc(C(=O)O)ccc1Cl,223 to 225
17,Cc1ccccc1CC(=O)NN,129 to 131
18,COC(=O)COc1ccc(C(=O)O)cc1OC,170 to 172
19,CCC1(CC)NC(=O)N(CC(=O)O)C1=O,169 to 173
20,Cn1cc(C(=O)O)cn1,203 to 205
21,NC(=O)c1ccc(=O)[nH]n1,326 to 328
22,O=C(CCl)N1CCN(c2ccc([N+](=O)[O-])cc2)CC1,129 to 131
23,O=C(O)CN1CCC(CO)CC1,202 to 204
24,Cc1ccc(S(=O)(=O)N2Cc3ccccc3CC2C(=O)O)cc1 (stereo unspecified),143 to 145
25,Nc1cc(-c2ccsc2)no1,89 to 91

row,SMILES,melting point [°C]
1,COc1ccccc1-c1cc(N)n(-c2ccccc2)n1,119 to 121
2,S=C1Nc2ccccc2C2CC=NN12 (stereo unspecified),249 to 251
3,CON(C)S(=O)(=O)c1cc(N)ccc1Cl,88 to 90
4,COc1ccc2nc(Cl)c(C)cc2c1,92 to 94
5,CNC(=O)c1cncc(C=CC(=O)O)c1,253 to 255
6,OCCNc1ccncc1,110 to 112
7,O=C(c1ccc(S(=O)(=O)Cl)cc1F)N1CCCC1,79 to 81
8,c1cnn(-c2ccc(N3CCNCC3)nn2)c1,161 to 163
9,Nc1ccncc1F,71 to 79
10,N#Cc1cc(N)ccc1Cl,127 to 129
11,CNS(=O)(=O)c1ccc(Br)c(C)c1,77 to 79
12,C=CC(=O)NC(N)=O,169 to 171
13,COc1ccc2nc(C)cc(O)c2c1,284 to 286
14,COC(=O)c1ccc(-c2noc(CC(C)(C)C)n2)cc1,114 to 116
15,CCOC(=O)c1cnc(C(=O)O)c(Cl)c1,114 to 116
16,COc1cc2c(cc1[N+](=O)[O-])C(=O)CCC2,176 to 178
17,CN1CCN(c2ccc(N)nc2)CC1,119 to 121
18,CC(=O)N(Cc1ccc(N)cc1)C(C)C,110 to 112
19,Oc1cccc(-n2cncn2)c1,181 to 183
20,O=C(c1ccsc1)N1CCCNCC1,98 to 100
21,Cc1nc(COc2ccc(C=O)cc2)no1,57 to 59
